Conditions: not given

Compound	melting point	log10 vapour pressure (mmHg)	ready biodegradability	boiling point	log10 Henry constant (atm·m³/mol)	log10 Koc (L/kg)	log10 Koa	log10 biodegradation half-life (days)
Oc1ccc(Nc2ccc3ccccc3c2)cc1	140 °C	–	–	–	–	–	–	–
N#CCN(CC#N)CCN(CC#N)CC#N	128 °C	–	–	–	–	–	–	–
CCc1cccc(C)c1N(COC(C)C)C(=O)CCl	21.6 °C	-4.52	–	–	–	–	–	–
NC(=O)c1c(F)cccc1F	146 °C	–	–	–	–	–	–	–
CC(=O)OCC(=O)[C@@]12OC(C)(C)O[C@@H]1C[C@H]1[C@@H]3C[C@H](F)C4=CC(=O)C=C[C@]4(C)[C@@]3(F)[C@@H](O)C[C@@]12C	309 °C	–	–	–	–	–	–	–
COc1cc(C=CC(=O)O)ccc1O	–	–	readily biodegradable	–	–	–	–	–
O=[N+]([O-])c1ccc(CBr)cc1	99 °C	–	–	–	–	–	–	–
CCC=CC(C)(C)C	–	–	–	103 °C	–	–	–	–
CC(C)=C1OC(=O)C1(C)C	-18 °C	–	–	170 °C	–	–	–	–
CCCCc1cccs1	–	–	–	182 °C	–	–	–	–
CC(Cc1ccc(C(C)(C)C)cc1)CN1CCCCC1 (stereo not drawn)	–	-3.89	–	–	–	–	–	–
CO[SiH](OC)OC	-115 °C	1.88	–	81 °C	–	–	–	–
CC(=O)Nc1ccc(N)cc1	166 °C	–	readily biodegradable	267 °C	–	–	–	–
OCC(c1ccccc1)c1ccccc1	64.5 °C	–	–	–	–	–	–	–
FC(C(F)(F)F)C(F)(F)F	-127 °C	3.53	–	-17.3 °C	–	–	–	–
O=[N+]([O-])c1ccc(Cl)cc1	83.5 °C	-1.66	not readily biodegradable	242 °C	-5.31	–	–	–
BrCCCc1ccccc1	–	–	–	220 °C	–	–	–	–
CCOc1ccc(CC)cc1	–	–	–	210 °C	–	–	–	–
CCCN(CCC)c1c([N+](=O)[O-])cc(S(C)(=O)=O)cc1[N+](=O)[O-]	150 °C	-8.03	not readily biodegradable	–	–	2.92	–	–
O=Cc1c(F)c(F)cc(F)c1F	–	–	–	178 °C	–	–	–	–
CCCCCCCCCCC(=O)OCC	-15 °C	-2.37	–	–	–	–	–	–
COc1ccc([N+](=O)[O-])c(N)c1	131 °C	–	–	–	–	–	–	–
O=C(Cl)C(F)(F)F	146 °C	–	–	-27 °C	-3.35	–	–	–
Cc1cccc(C)c1NC(=O)c1ccc[nH]c1=O	266 °C	–	–	–	–	–	–	–
CN1CCN(C2=Nc3cc(Cl)ccc3Nc3ccccc32)CC1	184 °C	–	–	–	–	–	–	–

Compound	melting point	log10 vapour pressure (mmHg)	ready biodegradability	boiling point	log10 Henry constant (atm·m³/mol)	log10 Koc (L/kg)	log10 Koa	log10 biodegradation half-life (days)
O=C(Nc1ccc(Cl)c(Cl)c1)c1cc(Cl)cc(Cl)c1O	161 °C	–	–	–	–	–	–	–
CC(C)CC(C)C(C)(C)C (stereo not drawn)	–	–	–	148 °C	–	–	–	–
CCCCCCCOO	35.5 °C	–	–	–	–	–	–	–
O=C1CC(=O)NC(=O)N1	248 °C	-7.82	readily biodegradable	–	–	–	–	–
Clc1cccc(-c2c(Cl)c(Cl)c(Cl)c(Cl)c2Cl)c1	–	–	–	–	-4.7	–	–	–
CC(C)COCOCC(C)C	–	–	–	166 °C	–	–	–	–
CCCC(=O)OCC	-98 °C	1.11	–	122 °C	–	–	3.56	–
COc1ccc2c(C(=O)c3ccc(Cl)cc3)c(C)n(CC(=O)O)c2c1	242 °C	–	–	–	–	–	–	–
CCCCCC[Si](Cl)(CCCCCC)CCCCCC	–	–	not readily biodegradable	–	–	–	–	–
FC(F)(F)Oc1ccccc1	-50 °C	–	–	102 °C	–	–	–	–
O=Cc1ccc(Cl)cc1Cl	72 °C	–	–	233 °C	–	–	–	–
CCS(=O)(=O)Cl	–	–	–	174 °C	–	–	–	–
Cc1ccc(CCN)cc1	–	–	–	214 °C	–	–	–	–
CCCC(C)CC (stereo not drawn)	-119 °C	1.79	–	91 °C	–	–	–	0.954
Cc1cc2c(cc1C)CCCC2	10 °C	–	–	252 °C	–	–	–	–
O=C(O)c1cccc(S(=O)(=O)O)c1	–	–	not readily biodegradable	–	–	–	–	–
CCCCCO	-78.9 °C	0.342	readily biodegradable	138 °C	-4.89	0.7	4.69	–
C[C@@H]1CC[C@H]2C(C)(C)[C@H]3C[C@@]12CC[C@@]3(C)O	86 °C	–	–	–	–	–	–	–
CC(C)c1cccc2ccccc12	-16 °C	-2.22	–	268 °C	–	–	–	–
CCOC(=O)c1ccccc1S(=O)(=O)NC(=O)Nc1nc(Cl)cc(OC)n1	–	–	–	–	–	2.04	–	–
c1cnc2ncncc2n1	140 °C	–	–	–	–	–	–	–
NC(=O)C1CCN(CCCN2c3ccccc3Sc3ccc(Cl)cc32)CC1	139 °C	–	–	–	–	–	–	–
CC(=O)[C@@]12O[C@](C)(c3ccccc3)O[C@@H]1C[C@H]1[C@@H]3CCC4=CC(=O)CC[C@]4(C)[C@H]3CC[C@@]12C	150 °C	–	–	–	–	–	–	–
O=C(O)c1cccc([N+](=O)[O-])c1C(=O)O	–	–	not readily biodegradable	–	–	–	–	–
c1ccc(-c2cccc(-c3ccccn3)n2)nc1	90 °C	–	–	–	–	–	–	–

Compound	melting point	log10 vapour pressure (mmHg)	ready biodegradability	boiling point	log10 Henry constant (atm·m³/mol)	log10 Koc (L/kg)	log10 Koa	log10 biodegradation half-life (days)
CN(C(=O)N(C)c1ccccc1)c1ccccc1	122 °C	–	–	350 °C	–	–	–	–
FC(F)(F)C1(F)C(F)(F)C(F)(F)C(F)(C(F)(F)F)C(F)(F)C1(F)F (stereo not drawn)	–	–	–	100 °C	–	–	–	–
Cc1cc(N)ccc1Cl	83.5 °C	–	not readily biodegradable	241 °C	–	–	–	–
CCCCCCCCBr	-55 °C	-0.418	–	200 °C	–	–	–	–
CCC(=O)c1ccc2c(c1)N(CCCN(C)C)c1ccccc1S2	69.5 °C	–	–	–	–	–	–	–
Clc1ccccc1-c1ccccc1Cl	61.5 °C	-2.56	not readily biodegradable	–	-3.64	3.92	7.18	–
O=C(O)c1ccccc1I	163 °C	–	not readily biodegradable	–	–	–	–	–
COc1ccccc1NC(=O)CC(C)=O	86 °C	–	–	–	–	–	–	–
S=c1[nH]c2ccccc2[nH]1	298 °C	–	not readily biodegradable	–	–	–	–	–
O=C(O)C1(O)c2ccccc2-c2ccc(Cl)cc21 (stereo not drawn)	152 °C	–	–	–	–	–	–	–
O=Cc1ccncc1	–	–	–	–	-6.75	–	–	–
CC(Br)CCl (stereo not drawn)	–	–	–	118 °C	–	–	–	–
CC1=NN(c2ccc([N+](=O)[O-])cc2)C(=O)C1[N+](=O)[O-] (stereo not drawn)	116 °C	–	–	–	–	–	–	–
CC1=C(C)CCC1	-90.4 °C	–	–	106 °C	–	–	–	–
CCCCCCCCOC(=O)c1ccccc1C(=O)OCCCCCCCC(C)C	98 °C	–	–	447 °C	–	–	–	–
Cc1ccc(C(=O)O)o1	110 °C	–	–	–	–	–	–	–
O[C@@H]1CC[C@H](O)C1	35.5 °C	–	–	–	–	–	–	–
CC=CCCl	–	1.84	–	80.7 °C	–	–	–	–
Cn1cccc1-c1cccnc1	–	–	–	281 °C	–	–	–	–
C[Si](C)(C)O[Si](C)(C)O[Si](C)(C)O[Si](C)(C)C	-76 °C	-0.426	–	194 °C	1.23	–	–	–
Nc1ccc(S(=O)(=O)c2ccc(NCCO)cc2)cc1	131 °C	–	–	–	–	–	–	–
COc1cc2c(c(O)c1OC)CNCC2	188 °C	–	–	–	–	–	–	–
C1=CCC(c2ccccc2)CC1 (stereo not drawn)	–	–	readily biodegradable	–	–	–	–	–
Cc1n[nH]c(=O)[nH]c1=O	211 °C	–	–	–	–	–	–	–
CCNC(=O)/C=C(C)/C=C/C=C(C)/C=C/c1c(C)cc(OC)c(C)c1C	180 °C	–	–	–	–	–	–	–

Compound	melting point	log10 vapour pressure (mmHg)	ready biodegradability	boiling point	log10 Henry constant (atm·m³/mol)	log10 Koc (L/kg)	log10 Koa	log10 biodegradation half-life (days)
CCCCCCCCCCCC(=O)OC(=O)CCCCCCCCCCC	41.8 °C	–	–	–	–	–	–	–
CCCNCCO	–	–	–	183 °C	–	–	–	–
OCCCCCCCCCCCCO	81.3 °C	–	–	–	–	–	–	–
CC(C)CCCl	-104 °C	–	–	98.9 °C	–	–	–	–
CC(=O)c1ccc(C(C)C)cc1	–	–	–	254 °C	–	–	–	–
c1ccc(-c2nc3ccccc3o2)cc1	103 °C	–	–	–	–	–	–	–
CN[C@H](C)[C@@H](O)c1ccc(O)cc1 (racemic)	153 °C	–	–	–	–	–	–	–
CC(C)OC(=O)[C@@H](C)N(C(=O)c1ccccc1)c1ccc(F)c(Cl)c1	–	-6.2	–	–	–	–	–	–
NCCCNCCCN	-14 °C	–	–	–	–	–	–	–
CCCCCCCCOC(=O)CCCCC	-28 °C	–	–	275 °C	–	–	–	–
OC[C@@H](O)[C@@H](O)[C@H](O)[C@@H](O)CO	–	–	readily biodegradable	–	–	–	–	–
O=C(Nc1ccc2nn(C3CCCCC3)nc2c1)c1ccccc1	212 °C	–	–	–	–	–	–	–
CCCc1ccccc1C	-60.3 °C	-0.0027	–	185 °C	–	–	–	0.477
O=Cc1cccc2ccccc12	33.5 °C	–	–	292 °C	–	–	–	–
CCC(C)CCC(C)CC (stereo not drawn)	–	–	–	161 °C	–	–	–	–
COc1cc2c3c(c4ccc(OC)c(OC)c4c2cc1OC)CN1CCC[C@H]1C3	220 °C	–	–	–	–	–	–	–
CCOCOCOCC	–	–	–	141 °C	–	–	–	–
Cc1ccccc1[N+](=O)[O-]	-10 °C	-0.726	not readily biodegradable	222 °C	-4.9	–	–	–
CC1=C(/C=C/C(C)=C/C=C/C(C)=C/CO)C(C)(C)CCC1	63.5 °C	–	–	–	–	–	–	–
CC(C)(C)OC(=O)C1(S(=O)(=O)c2ccc(Cl)cc2)CC1	110 °C	–	–	–	–	–	–	–
FC(F)OCC(F)(F)F	–	2.81	–	29.3 °C	–	–	–	–
C=C(C)C(=O)CC	-69.5 °C	–	–	118 °C	–	–	–	–
Clc1ccc(Cl)c(Cl)c1	17 °C	-0.337	not readily biodegradable	214 °C	-2.85	3.1	4.95	–

Same assay, conditions: fish

Compound	log10 BCF	log10 biotransformation half-life (days)
Brc1cc(Br)c(Oc2ccc(Br)c(Br)c2)c(Br)c1	6.29	–
O=[N+]([O-])c1ccc(Cl)cc1	1.3	-0.48
Clc1ccc(-c2cccc(Cl)c2Cl)cc1Cl	–	2.47
O=C(O)c1cccc([N+](=O)[O-])c1C(=O)O	0.72	-1.57
C[n+]1ccc(-c2cc[n+](C)cc2)cc1	0.28	–
Cc1cc2cccc(CCCC(C)C)c2cc1C	–	0.06
Cc1ccccc1[N+](=O)[O-]	1.26	-0.48
Clc1ccc(Cl)c(Cl)c1	3.32	1.2
